Results reported in patent US20230330093A1, “APPLICATION OF NITROGEN-CONTAINING SATURATED HETEROCYCLIC COMPOUND” (SHANGHAI PHARMACEUTICALS HOLDING CO., LTD., priority 2020, published 2023).
Read-outs that look alike come from different tables or passages of the source.

What was measured:
cynomolgus monkeys = assay: 4-week safety study: urinalysis; type: in vivo; settings: male and female monkeys
Experimental: For the monkey study, at quarantine period (twice, d01 and d02), day 14, day 28 and day 56, the following parameters were measured as shown in Table 20. (1) Hematological and coagulation index examination were performed using a Bayer ADVIA2120 (Germany) and a Sysmex CA-1500 (Japan). (2) The serum biochemical examination was assessed using a HITACHI 7080 automated analyzer (Japan) and an Easylyte PLUS electrolyte analyzer (MEDICA, America). (3) The 24-h pooled urine of each animal was collected by a tray under each cage. Urinalysis was carried out using Uritest-300 (China). (4) The 24-h pooled faeces of each monkey were collected by a tray under each cage. Fecal occult blood was detected. (5) ACCESS 2 Chemiluminescence immunoassay was used for myocardial troponin (TropI, non-GLP) test.

[1] = Plasma pharmacokinetics and bioavailability after intravenous and oral administration; type: in vivo, cynomolgus monkeys; settings: for Vd/F: read-out: Vss/F
Experimental: Cynomolgus monkeys (3/sex/group: weight 3-5 kg, age 5-6 years old) were obtained from SuZhou XiShan ZhongKe Laboratory Animals (Shanghai, China). Animals were housed for a 7-day acclimation period before study. The monkeys were individually caged in a controlled temperature (18-26° C.) and humidity (50±20%) animal room with an air flow of 10 plus air changes per hour with fresh air. The lighting cycle was 12 h on and 12 h off, and the monkeys were fed once a day in the morning. All animal experiments were performed in accordance with the Animal Care and Use Guidelines set by the AMMS Animal Care and Use Committee.
The compound of Formula I was intravenously or orally administered to cynomolgus monkeys fasted overnight. The doses were 1 mg/kg (intravenous), 1 mg/kg, 3 mg/kg, and 9 mg/kg (oral). Blood samples were collected from a limb vein at 0, 5, and 15 min and at […], 0.5, 1, 2, 3, 4, 6, 8, 12, and 24 h (0.2 mL for each time point) after administration. All blood samples were centrifuged immediately after collection at 10,000×g for 5 min and the plasmas were stored at −75±10° C. until analysis. Plasma samples were prepared by protein precipitation. The concentrations of the compound of Formula I in plasma were determined by the validated liquid chromatography-tandem mass spectrometry method.
The pharmacokinetic parameters such as the area under the plasma concentration-time curve (AUC), maximum plasma concentration (Cmax), time to reach Cmax (Tmax), half-life (T1/2), total body plasma clearance (CL), mean residence time (MRT) and volume of distribution at steady state (Vss) were calculated by non-compartmental analysis with WinNonlin v1.3 (Pharsight, Mountain View, CA, USA). For allometric scaling, animal pharmacokinetic data were simulated by a two-compartment model with the Kinetica 5.1 software package (v.3.0; InnaPhase, Philadelphia, PA, USA).

[2] = both sexes, cynomolgus monkey, plasma, Monkey, 1 mg/kg iv
[3] = both sexes, cynomolgus monkey, plasma, Monkey, 1 mg/kg po
[4] = both sexes, cynomolgus monkey, plasma, Monkey, 3 mg/kg po
[5] = both sexes, cynomolgus monkey, plasma, Monkey, 9 mg/kg po
[6] = both sexes, cynomolgus, cynomolgus monkey, plasma, Monkey, 3 mg/kg po
[7] = both sexes, cynomolgus, cynomolgus monkey, plasma, Monkey, 9 mg/kg po

COC(=O)NCCCn1nc([C@@H](C)N(C(=O)[C@H]2CNCCO2)C2CC2)c2ccc(C)nc21 [compound of Formula I]
urinalysis parameters (cynomolgus monkeys): No significant changes | F ([1]; Monkey, 1 mg/kg po): 3.3% | F ([1]; Monkey, 3 mg/kg po): 8.0% | F ([1]; Monkey, 9 mg/kg po): 11.3% | half-life ([1]; both sexes, cynomolgus monkey, plasma, iv, 1 mg/kg, Monkey, 1 mg/kg iv): 2.73 h | half-life ([1]; both sexes, cynomolgus monkey, plasma, po, 1 mg/kg, Monkey, 1 mg/kg po): 2.9 h | half-life ([1]; both sexes, cynomolgus monkey, plasma, po, 9 mg/kg, Monkey, 9 mg/kg po): 5.99 h | half-life ([1]; both sexes, cynomolgus monkey, plasma, po, 9 mg/kg, oral 1, 3, 9 mg/kg, monkey plasma): 2.73 to 5.99 h | AUC [1, 2]: 421 ng·h/mL | Cmax [1, 2]: 466 ng/mL | MRT [1, 2]: 0.97 h | Vd ([1]; both sexes, cynomolgus monkey, plasma, Monkey, 1 mg/kg iv, read-out: Vss): 1.86 L/kg | AUC [1, 3]: 11.8 ng·h/mL | CL/F [1, 3]: 1410 mL/min/kg | Cmax [1, 3]: 3.99 ng/mL | MRT [1, 3]: 4.32 h | Tmax [1, 3]: 1 h | Vd/F [1, 3]: 366 L/kg | CL/F [1, 4]: 503 mL/min/kg | Vd/F [1, 4]: 104 L/kg | AUC [1, 5]: 426 ng·h/mL | Cmax [1, 5]: 263 ng/mL | MRT [1, 5]: 2.62 h | Tmax [1, 5]: 1 h | clearance ([1]; both sexes, cynomolgus monkey, plasma, intravenous 1 mg/kg, monkeys): 32.7 mL/min/kg | bioavailability ([1]; both sexes, cynomolgus monkey, plasma, monkeys, calculated from AUC0-24h after iv and po administration): 3.3 to 11.3% | half-life ([1]; both sexes, cynomolgus, cynomolgus monkey, plasma, po, 3 mg/kg, Monkey, 3 mg/kg po): 3.68 h | AUC [1, 6]: 99.4 ng·h/mL | Cmax [1, 6]: 42.2 ng/mL | MRT [1, 6]: 3.46 h | Tmax [1, 6]: 1.3 h | CL/F [1, 7]: 353 mL/min/kg | Vd/F [1, 7]: 55.5 L/kg | distribution volume ([1]; intravenous 1 mg/kg, monkeys): 1.86 L/kg
